Measured values taken from US5329010A, “Quinone derivatives” (Eisai Co., Ltd., priority 1991, dated 1994).

What was measured:
[1] = Repetitive Oral Administration Test for 4 Weeks on Dogs; parameters: species or system dog (female beagle); conditions: in vivo, concluded after rat and dog tests, read-out: toxicologically non-influential dose
Procedure: Repetitive Oral Administration Test for 4 Weeks on Dogs
30 and 100 mg/kg of the compound obtained in the Example 3 was orally administered to female beagles aged 8 months (each group consisting of 2 animals) for 4 weeks. This compound was triturated with lactose and administered once a day.
During the administration period, the general conditions of the animals were observed and the body weight and feed intake were measured. After the completion of the first, seventh and final administrations, hemo-biochemical examination was effected. After the completion of the seventh and final administrations, further, hematological examination and urinalysis were effected. Furthermore, autopsy was effected and organs were weighed after the final administration. Livers, kidneys and adrenal bodies were patho-histologically examined under an optical microscope.

[2] = tested on: production of thromboxane B2 (TxB2), rat abdominal glycogenic infiltration cell; experiment: Inhibitory activity against production of thromboxane B2 (TxB2) from rat abdominal infiltration cell; assay type: cell-based, rat (Fisher male); conditions: 10 min, cells 5×10^6/ml, calcium ionophore A-23187 2 μg/ml, 37° C., enzyme immunoassay
Procedure: (§1) Inhibitory activity against the production of leukotriene B4 (LTB4) and thromboxane B2 (TxB2 from rat abdominal infiltration cell
(§2) 10 ml of a 6% (w/v) solution of glycogen (Type II from Oyster, Sigma) in physiological saline was injected into the abdominal cavity of a Fisher male rat having a weight of 150 to 200 g. After 20 to 24 hours, the abdominal exudation cells were recovered therefrom, washed and suspended in the Hanks' balanced salt solution (HBSS) in a concentration of 5×10^6 /ml. This suspension was poured onto a 96-well culture plate (Costar: registered trademark) in which a test drug diluted to a predetermined concentration had been put in an amount of 10 μl/well, in an amount of 100 μl/well. The resulting plate was incubated at 37° C. for 5 minutes. Calcium ionophore A-23187 [Calbiochem (registered trademark)] was added in a final concentration of 2 μg/ml. After the reaction at 37° C. for additional 10 minutes, the plate was put on ice and a BW755C solution was added in a final concentration of 100 μM. The resulting plate was centrifuged at 15000 rpm for 10 minutes. The supernatant was recovered and the amounts of LTB4 and TxB2 in the supernatant were determined by enzyme immunoassay with an EIA kit mfd. by Cayman.
(Thromboxane A2 is very unstable to treat and naturally turns to thromboxane B2 in 10-20 seconds in the human body. Therefore, thromboxane B2 was used in the tests above).

[3] = tested on: production of leukotriene B4 (LTB4), rat abdominal glycogenic infiltration cell; experiment: Inhibitory activity against production of leukotriene B4 (LTB4) from rat abdominal infiltration cell; assay type: cell-based, rat (Fisher male); conditions: 10 min, cells 5×10^6/ml, calcium ionophore A-23187 2 μg/ml, 37° C., enzyme immunoassay
Procedure: as §1, §2

[4] = Repetitive Oral Administration Test for 4 Weeks on Rats; assay type: in vivo, rat (female Slc:SD); conditions: once a day, each of 30 and 100 mg/kg
Procedure: Repetitive Oral Administration Test for 4 Weeks on Rats
30 and 100 mg/kg of the compound obtained in the Example 3 was orally administered to female Slc:SD rats aged 7 weeks (each group consisting of 5 animals) for 4 weeks. This compound was suspended in a 0.5 wt. % aqueous solution of methylcellulose and administered once a day.
During the administration period, the general conditions of the animals were observed and the body weight and feed intake were measured. After the completion of the final administration, hematological examination, hemo-biochemical examination, urinalysis and autopsy were effected and organs were weighed. Further, livers and kidneys were patho-histologicallyexamined under an optical microscope.

Row | Compound | IC50 [2] [nM] | IC50 [3] [nM] | NOAEL at 672 h [1] [mg/kg] | change in general conditions, body weight, feed intake, hematology, hemo-biochemistry, urinalysis, autopsy, organ weight, histology [4]
1 | COC1=C(C)C(=O)C(/C=C(\CCCCCc2cccnc2)C(=O)O)=C(C)C1=O [Ex. 3, (E)-3-(2-Methoxy-3,6-dimethyl-1,4-benzoquinon-5-yl)-2-[5-(3-pyridyl)pentyl]-2-propenoic acid] | 50 | 1160 | 100 | No change was observed
2 | CCOC(=O)/C(=C/c1c(C)c(OC)c(OC)c(C)c1OC)CCCc1cccnc1 [Ex. 10] | 420 | 320 |  | 

Further lines, with some results ahead:

Row | IC50 [2] [nM] | IC50 [3] [nM] | Compound | NOAEL at 672 h [1] [mg/kg] | change in general conditions, body weight, feed intake, hematology, hemo-biochemistry, urinalysis, autopsy, organ weight, histology [4]
3 | 460 | 7860 | COc1c(C)c(O)c(/C=C(\CCCCCc2cccnc2)C(=O)O)c(C)c1O [Ex. 4, (E)-3-(2,5-Dihydroxy-4-methoxy-3,6-dimethylphenyl)-2-[5-(3-pyridyl)pentyl]-2-propenoic acid] |  | 
4 | 480 | 3160 | CCCCCCCOc1c(C)c(OC)c(/C=C(\CCCCCc2cccnc2)C(=O)OCC)c(C)c1OC [Ex. 5] |  | 
5 | 90 | 1390 | CCCCOc1c(C)c(OC)c(C)c(/C=C(\CCCCCc2cccnc2)C(=O)OCC)c1OC [Ex. 7] |  | 
6 | 160 | 3160 | CCCCCCCOc1c(C)c(OC)c(C)c(/C=C(\CCCCCc2cccnc2)C(=O)OCC)c1OC [Ex. 9] |  | 
